Test results published in patent US7560229B2, “Methods of use of the enzymes of mycothiol synthesis” (priority 2002, dated 2009).
“And” between values parts separate entries of the source, which are not always exact repeats. Identical values can stand only once. Like-named read-outs stand apart in the source and are kept apart here. Marks after values point to notes of the source that are not given here.

Assays:
[1] = target: T1, M. tuberculosis MshC (Cys:GlcN-Ins ligase) (Mycobacterium tuberculosis, UniProt P9WJM9); conditions: for activity as alternative substrate to Cys: 80 μM to 1.6 mM
[2] = target: T1, M. tuberculosis MshC (Cys:GlcN-Ins ligase); format: biochemical
[3] = target: T1, M. tuberculosis MshC (Cys:GlcN-Ins ligase); format: biochemical; conditions: 0.1-5 mM, FIG. 16
[4] = test system: M. smegmatis MSH deficient mutants (Tn1, Tn2, I64); format: cell-based
[5] = target: T1, M. tuberculosis MshC (Cys:GlcN-Ins ligase); format: biochemical; conditions: 2, 10, 50 or 100 μM zinc chloride, FIG. 16
N[C@@H](CS)C(=O)O = experiment: purified protein, by the assay type; conditions: 37.0 °C

T1 sequence (P9WJM9 whole entry): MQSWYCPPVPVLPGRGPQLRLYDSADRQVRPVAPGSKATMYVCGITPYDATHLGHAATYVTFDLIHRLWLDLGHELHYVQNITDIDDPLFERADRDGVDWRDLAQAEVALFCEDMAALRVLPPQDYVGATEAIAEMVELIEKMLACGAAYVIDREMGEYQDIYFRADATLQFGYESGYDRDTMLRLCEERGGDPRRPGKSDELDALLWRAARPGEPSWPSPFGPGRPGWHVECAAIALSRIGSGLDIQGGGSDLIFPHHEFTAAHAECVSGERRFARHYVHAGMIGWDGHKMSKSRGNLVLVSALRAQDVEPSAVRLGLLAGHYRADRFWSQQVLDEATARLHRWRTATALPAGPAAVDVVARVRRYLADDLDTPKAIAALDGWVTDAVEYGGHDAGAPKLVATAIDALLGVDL

Compound	relative spec. act. [1]	activity as alternative substrate to Cys [1]	inhibition of ligase activity [2]	other results
C[C@H](N)C(=O)O [L-alanine]	≦0.016	Nor was significant activity detected	Only very minor inhibition	–
N[C@@H](CCS)C(=O)O [L-homocysteine]	≦0.2	Nor was significant activity detected	Only very minor inhibition	–
N[C@H](CS)C(=O)O [D-Cys]	≦0.7	poor substrate	Only very minor inhibition	% inhibition [2]: 15 ± 8%
c1cnc2c(c1)ccc1cccnc12 [1,10-phenanthroline]	–	–	–	effect of metal chelation on enzyme activity [3]: no significant loss of activity
N[C@@H](CS)C(=O)O [Cys, L-cysteine]	(100)^c	–	–	Specific activity [1]: ^cSpecific activity 108 nmol min^−1 mg^−1.; apparent Vmax (L-Cys varied) [1]: 1450 ± 200 nmol/min/mg
O=C(O)CCS [β-mercaptopropionate, β-mercaptopropionic acid]	≦0.004	Neither β-mercaptopropionic acid nor cysteamine, derived from Cys by removal of the amino and carboxyl groups, respectively, produced evidence of reaction	minor inhibition	–
N[C@@H](CO)C(=O)O [L-serine]	≦0.008	Nor was significant activity detected	Only very minor inhibition	–
CC[C@@H](CO)NCCN[C@@H](CC)CO [ethambutol]	–	–	–	difference in sensitivity between mutants [4]: no significant difference
Nc1ncnc2c1ncn2[C@@H]1O[C@H](COP(=O)(O)OP(=O)(O)OP(=O)(O)O)[C@@H](O)[C@H]1O [ATP]	–	–	–	decline of reaction rate [1]: 2.2 fold
[Cl-].[Cl-].[Zn+2] [Zn^2+, zinc chloride]	–	–	–	effect of supplementation on enzyme activity [5]: loss in activity
M. tuberculosis MshC (Cys:GlcN-Ins ligase) (Mycobacterium tuberculosis H37Rv)	–	–	–	Km (N[C@@H](CS)C(=O)O): 70 ± 15 µM and 85 ± 20 µM
NCCS [cysteamine]	≦0.16	Neither β-mercaptopropionic acid nor cysteamine, derived from Cys by removal of the amino and carboxyl groups, respectively, produced evidence of reaction	best inhibitor	reduction in rate [2]: 3 fold
N[C@@H](CS)C(=O)N[C@H]1[C@@H](OC2[C@H](O)[C@H](O)C(O)[C@H](O)[C@H]2O)O[C@H](CO)[C@@H](O)[C@@H]1O (stereo partly drawn) [Cys-GlcN-Ins, 1D-myo-inosityl 2-L-cysteinylamido-2-deoxy-α-D-glucopyranoside]	–	–	–	inhibition [2]: < 1.0%
N[C@H]1C(O)O[C@H](CO)[C@@H](O)[C@@H]1O (stereo partly drawn) [D-GlcN, D-glucosamine]	1.2	–	–	activity relative to GlcN-Ins [1]: ~1%
CC(=O)N[C@@H](CS)C(=O)N[C@H]1[C@@H](OC2[C@H](O)[C@H](O)C(O)[C@H](O)[C@H]2O)O[C@H](CO)[C@@H](O)[C@@H]1O (stereo partly drawn) [MSH, 1D-myo-inosityl 2-(N-acetylcysteinyl)amido-2-deoxy-α-D-glucopyranoside]	–	–	–	% inhibition [2]: 4 ± 3% and 7 ± 5%; inhibition of ligase activity ([2]; 1 and 5 mM, physiologic levels): minimal inhibition
N[C@H]1[C@@H](OC2[C@H](O)[C@H](O)C(O)[C@H](O)[C@H]2O)O[C@H](CO)[C@@H](O)[C@@H]1O (stereo partly drawn) [GlcN-Ins, 1D-myo-inosityl 2-amino-2-deoxy-α-D-glucopyranoside]	–	–	–	apparent Vmax (GlcN-Ins varied) [1]: 1160 ± 120 nmol/min/mg; Km ([1]; read-out: apparent Km for GlcN-Ins): 280 ± 43 µM
NC(=O)c1cnccn1 [pyrazinamide]	–	–	–	difference in sensitivity between mutants [4]: no significant difference
CC[C@H](N)C(=O)O [L-α-aminobutyric acid]	–	–	Only very minor inhibition	–
CC(=O)N[C@@H](CS)C(=O)O [AcCys, N-acetylcysteine]	≦0.24	Nor was significant activity detected	minor inhibition	–
